Test results: ChEMBL document CHEMBL1127073, “(+)-Hemipalmitoylcarnitinium strongly inhibits carnitine palmitoyltransferase-I in intact mitochondria” (J Med Chem, 1993)
Each block holds one molecule with its values, some of them ahead of it.

Assays:
[1] = molecular target: T1, Carnitine O-palmitoyltransferase 1, liver isoform (Rattus norvegicus, UniProt P32198); experiment: (§1) Compound was evaluated for its ability to inhibit carnitine palmitoyltransferase I activity in intact mitochondria from rat liver
T1 sequence (P32198 whole entry): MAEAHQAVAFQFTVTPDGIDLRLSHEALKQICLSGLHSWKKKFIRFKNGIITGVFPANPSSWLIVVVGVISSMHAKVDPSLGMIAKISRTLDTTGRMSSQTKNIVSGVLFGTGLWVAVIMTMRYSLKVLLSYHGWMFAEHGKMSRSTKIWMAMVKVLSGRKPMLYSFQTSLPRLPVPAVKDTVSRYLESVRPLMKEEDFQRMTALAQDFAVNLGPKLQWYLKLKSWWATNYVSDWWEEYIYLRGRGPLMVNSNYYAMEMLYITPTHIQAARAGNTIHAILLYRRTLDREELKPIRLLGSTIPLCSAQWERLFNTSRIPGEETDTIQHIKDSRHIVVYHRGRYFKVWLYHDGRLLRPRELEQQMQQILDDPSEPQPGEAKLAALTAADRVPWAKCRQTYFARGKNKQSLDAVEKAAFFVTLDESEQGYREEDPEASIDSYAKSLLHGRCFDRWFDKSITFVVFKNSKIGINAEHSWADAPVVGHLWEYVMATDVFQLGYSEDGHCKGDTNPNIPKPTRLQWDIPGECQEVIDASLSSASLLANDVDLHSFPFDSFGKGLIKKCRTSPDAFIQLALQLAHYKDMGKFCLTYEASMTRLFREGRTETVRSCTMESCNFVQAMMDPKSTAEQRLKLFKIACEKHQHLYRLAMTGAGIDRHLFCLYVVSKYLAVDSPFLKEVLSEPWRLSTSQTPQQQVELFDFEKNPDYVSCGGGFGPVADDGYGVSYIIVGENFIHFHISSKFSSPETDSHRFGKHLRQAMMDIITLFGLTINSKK

[2] = molecular target: T2, Carnitine O-palmitoyltransferase 1, muscle isoform (Rattus norvegicus, UniProt Q63704); experiment: (§2) Compound was evaluated for its ability to inhibit carnitine palmitoyltransferase I activity in intact mitochondria from rat heart
T2 sequence (Q63704 whole entry): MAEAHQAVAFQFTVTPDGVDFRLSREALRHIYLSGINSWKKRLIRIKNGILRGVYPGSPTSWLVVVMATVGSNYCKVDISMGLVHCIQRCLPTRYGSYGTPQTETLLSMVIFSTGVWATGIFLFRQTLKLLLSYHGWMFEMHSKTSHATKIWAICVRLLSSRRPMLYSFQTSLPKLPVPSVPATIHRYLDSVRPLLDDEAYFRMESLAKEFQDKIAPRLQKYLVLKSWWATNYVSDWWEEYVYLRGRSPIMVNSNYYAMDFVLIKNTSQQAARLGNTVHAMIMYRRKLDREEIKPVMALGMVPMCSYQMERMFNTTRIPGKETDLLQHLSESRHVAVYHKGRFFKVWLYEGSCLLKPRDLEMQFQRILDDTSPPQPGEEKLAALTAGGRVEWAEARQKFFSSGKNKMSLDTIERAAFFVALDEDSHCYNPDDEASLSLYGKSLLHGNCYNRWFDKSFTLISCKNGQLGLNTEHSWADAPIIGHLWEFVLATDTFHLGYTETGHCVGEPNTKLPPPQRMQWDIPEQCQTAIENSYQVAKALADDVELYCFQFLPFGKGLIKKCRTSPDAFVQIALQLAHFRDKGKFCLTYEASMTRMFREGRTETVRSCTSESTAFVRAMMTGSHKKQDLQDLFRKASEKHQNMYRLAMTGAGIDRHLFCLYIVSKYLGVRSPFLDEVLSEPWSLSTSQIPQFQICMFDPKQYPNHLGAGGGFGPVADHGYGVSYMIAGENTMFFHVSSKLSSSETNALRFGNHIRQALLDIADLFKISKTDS

[3] = compound: CCCCCCCCCCCCCCC[C@@]1(O)C[N+](C)(C)C[C@@H](CC(=O)[O-])O1; experiment: as §2
[4] = compound: CCCCCCCCCCCCCCC[C@@]1(O)C[N+](C)(C)C[C@@H](CC(=O)[O-])O1; experiment: as §1

Ki [1]: 4.2 µM | Ki [2]: 2800 nM
Molecule: CCCCCCCCCCCCCCC[C@@]1(O)C[N+](C)(C)C[C@@H](CC(=O)[O-])O1 [HEMIACYLCARNITINIUM]

B1: Carnitine O-palmitoyltransferase 1, muscle isoform (Rattus norvegicus), Q63704 (protein)
chain: MAEAHQAVAFQFTVTPDGVDFRLSREALRHIYLSGINSWKKRLIRIKNGILRGVYPGSPTSWLVVVMATVGSNYCKVDISMGLVHCIQRCLPTRYGSYGTPQTETLLSMVIFSTGVWATGIFLFRQTLKLLLSYHGWMFEMHSKTSHATKIWAICVRLLSSRRPMLYSFQTSLPKLPVPSVPATIHRYLDSVRPLLDDEAYFRMESLAKEFQDKIAPRLQKYLVLKSWWATNYVSDWWEEYVYLRGRSPIMVNSNYYAMDFVLIKNTSQQAARLGNTVHAMIMYRRKLDREEIKPVMALGMVPMCSYQMERMFNTTRIPGKETDLLQHLSESRHVAVYHKGRFFKVWLYEGSCLLKPRDLEMQFQRILDDTSPPQPGEEKLAALTAGGRVEWAEARQKFFSSGKNKMSLDTIERAAFFVALDEDSHCYNPDDEASLSLYGKSLLHGNCYNRWFDKSFTLISCKNGQLGLNTEHSWADAPIIGHLWEFVLATDTFHLGYTETGHCVGEPNTKLPPPQRMQWDIPEQCQTAIENSYQVAKALADDVELYCFQFLPFGKGLIKKCRTSPDAFVQIALQLAHFRDKGKFCLTYEASMTRMFREGRTETVRSCTSESTAFVRAMMTGSHKKQDLQDLFRKASEKHQNMYRLAMTGAGIDRHLFCLYIVSKYLGVRSPFLDEVLSEPWSLSTSQIPQFQICMFDPKQYPNHLGAGGGFGPVADHGYGVSYMIAGENTMFFHVSSKLSSSETNALRFGNHIRQALLDIADLFKISKTDS
Km [3]: 500 µM

B2: Carnitine O-palmitoyltransferase 1, liver isoform (Rattus norvegicus), P32198 (protein)
chain: MAEAHQAVAFQFTVTPDGIDLRLSHEALKQICLSGLHSWKKKFIRFKNGIITGVFPANPSSWLIVVVGVISSMHAKVDPSLGMIAKISRTLDTTGRMSSQTKNIVSGVLFGTGLWVAVIMTMRYSLKVLLSYHGWMFAEHGKMSRSTKIWMAMVKVLSGRKPMLYSFQTSLPRLPVPAVKDTVSRYLESVRPLMKEEDFQRMTALAQDFAVNLGPKLQWYLKLKSWWATNYVSDWWEEYIYLRGRGPLMVNSNYYAMEMLYITPTHIQAARAGNTIHAILLYRRTLDREELKPIRLLGSTIPLCSAQWERLFNTSRIPGEETDTIQHIKDSRHIVVYHRGRYFKVWLYHDGRLLRPRELEQQMQQILDDPSEPQPGEAKLAALTAADRVPWAKCRQTYFARGKNKQSLDAVEKAAFFVTLDESEQGYREEDPEASIDSYAKSLLHGRCFDRWFDKSITFVVFKNSKIGINAEHSWADAPVVGHLWEYVMATDVFQLGYSEDGHCKGDTNPNIPKPTRLQWDIPGECQEVIDASLSSASLLANDVDLHSFPFDSFGKGLIKKCRTSPDAFIQLALQLAHYKDMGKFCLTYEASMTRLFREGRTETVRSCTMESCNFVQAMMDPKSTAEQRLKLFKIACEKHQHLYRLAMTGAGIDRHLFCLYVVSKYLAVDSPFLKEVLSEPWRLSTSQTPQQQVELFDFEKNPDYVSCGGGFGPVADDGYGVSYIIVGENFIHFHISSKFSSPETDSHRFGKHLRQAMMDIITLFGLTINSKK
Km [4]: 350 µM
